Tests used:
Type in all cases: in vivo
[1] = test system: cat flea (Ctenocephalides felis); assay: Potter tower spray bioassay on adult arthropods, mortality; settings: 1.0 ml/pot, adults, room temperature; % of negative control
Experimental: (§1) The IGR's Methoprene and Diflubenzuron were sources as WHO standard preparations at 20 mg/l technical from WHO, Geneva, and used as positive controls or mixtures (50:50) with 5.0% p-cymene.
(§2) Laboratory colonies of the cat flea (Ctenocephalides felis) and the Deer Tick (Ixodes ricinus) were used in bioassays undertaken at room temperature.
(§3) Bioassays consisted of plastic pots with a netting cover holding batches of 10 adult insects of each species being placed under a potter tower which then sprayed a fine particulate aerosol of even rate. Application rates were always 1.0 ml/pot which is sufficient to wet the inner surface without leaving free liquid residues. After exposure to the treatment or a 5% ethanol control, arthropods were then transferred to a clean plastic holding pot and held at room temperature for 3 days with mortality scored after 24 & 72 hours. Mortality was calculated as % of negative control.

[2] = test system: Deer Tick (Ixodes ricinus); assay: as above; settings: 1.0 ml/pot, adults, room temperature; % of negative control
Experimental: as §1, §2, §3

[3] = test system: a range of pests including Musca domestica, Periplaneta Americana, Blatella germanica and others; assay: Tests of insecticidal activity of p-cymene against a range of pests; settings: 15 listed pest species

Question: Which 24 hours mortality [1] does the source give for `Cc1ccc(C(C)C)cc1` [p-cymene] here?
Answer: 76%

Question: What about the 72 hours mortality [1] of the same compound?
Answer: 88%

Question: What about the 24 hours mortality [2] of the same compound?
Answer: 28%

Question: What about the 72 hours mortality [2] of the same compound?
Answer: 55%

Question: What about the insecticidal activity [3] of the same compound?
Answer: broad spectrum insecticidal activity

Reference: US20090324509A1, “INSECTICIDAL COMPOSITION” (LIVIE BIOPESTICIDES LIMITED, priority 2006, published 2009)
